Measurements reported in patent US8962844B2, “1,3,4-oxadiazole and 1,3,4-thiadiazole β-lactamase inhibitors” (priority 2012, dated 2015).
Counter-ions that a name gives are not always drawn.

Tests used:
[1] = test system: bacterial strains that express KPC β-lactamases; assay: Standard BLI potentiation MIC / synergy MIC (sMIC) assays run in the presence of a β-lactam, KPC expressing strains; assay type: cell-based; conditions: more active for at least one KPC strain and/or better spectrum of activity than Avibactam; BLI in combination with a β-lactam
From the text: (§1) Unless otherwise indicated, the activity of the BLI compounds can be described by the MIC value obtained from a Synergy MIC assay or a BLI potentiation assay (e.g as described herein), both of which are run in the presence of a β-lactam.
(§2) A set of β-lactamase expressing isogenic E. coli strains was constructed by cloning a β-lactamase gene into a customized derivative of pBR322 (GenBank Accession Number J01749) and transforming the engineered plasmids into E. coli. The NdeI restriction site within the plasmid backbone of pBR322 was removed to generate pBR322 ΔNdeI. The pBR322 ΔNdeI vector itself, minus the blaTEM-1 gene, was amplified using two primers: (1) pBR-Pbla 5′-cgcatatgactettectttttcaatattattg-3, SEQ ID 1, a primer with an engineered NdeI restriction site at the 3′ end of the blaTEM-1 promoter and (2) pBR-vec-1 5′-[…]-3′, SEQ ID 2, a primer with an engineered BamHI restriction site at the 3′ end of the blaTEM-1 open reading frame. The chloramphenicol resistance gene, cat, was generated by PCR amplification from pKD3 (GenBank Accession Number AY048742) using primers with an engineered NdeI restriction site at the 5′ end (Pbla-cat 5′-[…]-3′, SEQ ID 3) and an engineered BamHI restriction site at the 3′ end (Vec-1-cat 5′-[…]-3′, SEQ ID 4) of the resistance gene. The two PCR products, pBR322 ΔNdeI and cat were ligated together generating pBR-CBST (pBR322 ΔNdeI ΔTEM-1::cat Seq. ID 5) which retains both the pBR322 tetracycline resistance cassette, tetA, and the plasmid origin of replication but the blaTEM-1 gene was replaced by the cat gene.
(§3) Using this engineering strategy a number of plasmids producing β-lactamase genes from different classes (see below) were generated using synthetic genes with an engineered NdeI restriction site at the 5′ end and BamHI restriction site at the 3′ end of each gene (GenScript). Both the synthetic β-lactamase genes and cat gene were ligated into the NdeI/BamHI sites of the pBR322 ΔNdeI PCR product and transformed into electrocompetent E. coli ElectroMax DH10B (Invitrogen/Life Technologies). E. coli DH10B harboring the recombinant plasmids were selected on LB agar (supplemented with 25 μg/mL tetracycline) and single isolated colonies were then inoculated into 5 mL LB media (supplemented with 25 μg/mL tetracycline), and incubated at 37° C. with aeration (250 rpm) for 18 hrs. The cultures were frozen back at −80° C. in 20% glycerol. The DNA sequence of the cloned β-lactamase genes was confirmed. The β-lactamase gene expression in the recombinant E. coli strains was driven by the blaTEM-1 promoter in the pBR-CBST plasmid and was characterized by MIC profiling of the E. coli recombinant strains against comparator β-lactam/BLI combinations in broth microdilution assay.
(§4) The experimental protocol was performed according to Clinical and Laboratory Standards Institute (CLSI) guidelines with modifications as described below (CLSI guidelines can be derived from the CLSI document M07-A9 published in January 2012: “Methods for Dilution Antimicrobial Susceptibility Tests for Bacteria That Grow Aerobically; Approved Standard-Ninth Edition”).
(§5) To prepare for MIC testing, frozen glycerol stocks of clinical isolates (Klebsiella pneumoniae, Eschericia coli, Enterobacter spp, Citrobacter spp, or Pseudomonas aeruginosa) were used to streak for isolated colonies on rich, non-selective, tryptic soy agar containing 5% sheep's blood (TSAB). Frozen glycerol stocks of laboratory engineered, isogenic E. coli strains, which contain cloned β-lactamase expressing plasmids were used to streak for isolated colonies on rich, selective LB agar supplemented with 25 μg/mL tetracycline to maintain the plasmid. All strains were incubated at 37° C. for 18-24 hrs.
(§6) On the day of testing, primary cultures were started by scraping off 5-10 colonies from the TSAB plates containing clinical strains or the tetracycline supplemented LB plates containing engineered strains. […]

[2] = test system: bacterial strains that express the class D cephalosporinase OXA-15; assay: Standard BLI potentiation MIC / synergy MIC (sMIC) assays run in the presence of a β-lactam, OXA-15 expressing strains; assay type: cell-based, E. coli; conditions: BLI in combination with a β-lactam; comparison with Avibactam (comparator compound CCC)
From the text: as §1, §2, §3, §4, §5, §6

Structure (SMILES) | activity and/or spectrum of activity against bacterial strains that express KPC β-lactamases, compared with Avibactam [1] | activity against bacterial strains that express the class D cephalosporinase OXA-15, compared with Avibactam [2]
NC1CCN(CCc2nnc([C@@H]3CC[C@@H]4CN3C(=O)N4OS(=O)(=O)O)o2)CC1 [Compound 775, (2S,5R)-2-(5-(2-(4-aminopiperidin-1-yl)ethyl)-1,3,4-oxadiazol-2-yl)-7-oxo-1,6-diazabicyclo[3.2.1]octan-6-yl hydrogen sulfate] | more active than Avibactam | –
O=C1N2C[C@@H](CC[C@H]2c2nnc(CCCCNC3CCNCC3)o2)N1OS(=O)(=O)O [Compound 772, (2S,5R)-7-oxo-2-(5-(4-(piperidin-4-ylamino)butyl)-1,3,4-oxadiazol-2-yl)-1,6-diazabicyclo[3.2.1]octan-6-yl hydrogen sulfate] | more active than Avibactam | more active than Avibactam
N[C@@H]1CN[C@H](c2nnc([C@@H]3CC[C@@H]4CN3C(=O)N4OS(=O)(=O)O)o2)C1 [Compound 760, (2S,5R)-2-(5-((2S,4S)-4-aminopyrrolidin-2-yl)-1,3,4-oxadiazol-2-yl)-7-oxo-1,6-diazabicyclo[3.2.1]octan-6-yl hydrogen sulfate] | more active than Avibactam | more active than Avibactam
O=C1N2C[C@@H](CC[C@H]2c2nnc(C3CCNC3)o2)N1OS(=O)(=O)O (stereo partly drawn) [Compound 710, (2S,5R)-7-oxo-2-(5-(pyrrolidin-3-yl)-1,3,4-oxadiazol-2-yl)-1,6-diazabicyclo[3.2.1]octan-6-yl hydrogen sulfate] | more active than Avibactam | more active than Avibactam
O=C1N2C[C@@H](CC[C@H]2c2nnc(CN[C@H]3CCNC3)o2)N1OS(=O)(=O)O [Compound 765, (2S,5R)-7-oxo-2-(5-(((S)-pyrrolidin-3-ylamino)methyl)-1,3,4-oxadiazol-2-yl)-1,6-diazabicyclo[3.2.1]octan-6-yl hydrogen sulfate] | more active than Avibactam | more active than Avibactam
NCCCc1nnc([C@@H]2CC[C@@H]3CN2C(=O)N3OS(=O)(=O)O)o1 [Compound 720, (2S,5R)-2-(5-(3-aminopropyl)-1,3,4-oxadiazol-2-yl)-7-oxo-1,6-diazabicyclo[3.2.1]octan-6-yl hydrogen sulfate] | more active than Avibactam | more active than Avibactam
O=C1N2C[C@@H](CC[C@H]2c2nnc(CCC3CNC3)o2)N1OS(=O)(=O)O [Compound 742, (2S,5R)-2-(5-(2-(azetidin-3-yl)ethyl)-1,3,4-oxadiazol-2-yl)-7-oxo-1,6-diazabicyclo[3.2.1]octan-6-yl hydrogen sulfate] | more active than Avibactam | more active than Avibactam
NC1CCN(Cc2nnc([C@@H]3CC[C@@H]4CN3C(=O)N4OS(=O)(=O)O)o2)CC1 [Compound 774, (2S,5R)-2-(5-((4-aminopiperidin-1-yl)methyl)-1,3,4-oxadiazol-2-yl)-7-oxo-1,6-diazabicyclo[3.2.1]octan-6-yl hydrogen sulfate] | more active than Avibactam | more active than Avibactam
O=C1N2C[C@@H](CC[C@H]2c2nnc(C3CC4(CNC4)C3)o2)N1OS(=O)(=O)O [Compound 750, (2S,5R)-2-(5-(2-azaspiro[3,3]heptan-6-yl)-1,3,4-oxadiazol-2-yl)-7-oxo-1,6-diazabicyclo[3.2.1]octan-6-yl hydrogen sulfate] | more active than Avibactam | more active than Avibactam
O=C1N2C[C@@H](CC[C@H]2c2nnc([C@H]3CCNC3)o2)N1OS(=O)(=O)O [Compound 758, (2S,5R)-7-oxo-2-(5-((S)-pyrrolidin-3-yl)-1,3,4-oxadiazol-2-yl)-1,6-diazabicyclo[3.2.1]octan-6-yl hydrogen sulfate] | more active than Avibactam | more active than Avibactam
N=C(N)NCCc1nnc([C@@H]2CC[C@@H]3CN2C(=O)N3OS(=O)(=O)O)s1 [Compound 794, (2S,5R)-2-(5-(2-guanidinoethyl)-1,3,4-thiadiazol-2-yl)-7-oxo-1,6-diazabicyclo[3.2.1]octan-6-yl hydrogen sulfate] | more active than Avibactam | more active than Avibactam
O=C1N2C[C@@H](CC[C@H]2c2nnc([C@@H]3CCNC3)o2)N1OS(=O)(=O)O [Compound 759, (2S,5R)-7-oxo-2-(5-((R)-pyrrolidin-3-yl)-1,3,4-oxadiazol-2-yl)-1,6-diazabicyclo[3.2.1]octan-6-yl hydrogen sulfate] | more active than Avibactam | more active than Avibactam
N[C@H]1C[C@@H](c2nnc([C@@H]3CC[C@@H]4CN3C(=O)N4OS(=O)(=O)O)s2)C1 [Compound 795, (2S,5R)-2-(5-((1s,3R)-3-aminocyclobutyl)-1,3,4-thiadiazol-2-yl)-7-oxo-1,6-diazabicyclo[3.2.1]octan-6-yl hydrogen sulfate] | more active than Avibactam | more active than Avibactam
N=C(N)Nc1nnc([C@@H]2CC[C@@H]3CN2C(=O)N3OS(=O)(=O)O)o1 [Compound 738, (2S,5R)-2-(5-guanidino-1,3,4-oxadiazol-2-yl)-7-oxo-1,6-diazabicyclo[3.2.1]octan-6-yl hydrogen sulfate] | more active than Avibactam | more active than Avibactam
N=C(N)N[C@H]1C[C@@H](c2nnc([C@@H]3CC[C@@H]4CN3C(=O)N4OS(=O)(=O)O)s2)C1 [Compound 784, (2S,5R)-2-(5-((1s,3R)-3-guanidinocyclobutyl)-1,3,4-thiadiazol-2-yl)-7-oxo-1,6-diazabicyclo[3.2.1]octan-6-yl hydrogen sulfate] | more active than Avibactam | more active than Avibactam
